Consider 28 molecules from patent publication US6867320B2, “Substituted phenylalkanoic acid derivatives and use thereof” (Asahi Kasei Pharma Corporation, priority 2002, dated 2005).

The test system of assay [1] is zymosan-stimulated footpad edema. In words: Mouse zymosan-stimulated footpad edema reaction. Format: in vivo. Conditions: ICR female mice, oral 0.1 to 500 mg/kg, compared with positive control group. As to the method: 3. Suppressing Effect on Mouse Zymosan-stimulated Footpad Edema Reaction A suppressing effect on footpad edema caused by zymosan as an inflammatory stimulant was studied by the following method. Groups of ICR female mice (6- to 7-week old) each consisting of eight mice were used for the test. A test compound was suspended or dissolved in purified water containing 0.5% methylcellulose and orally administered to the test animals at 0.1 to 500 mg/0.2 ml/kg. To the control group, purified water containing 0.5% methylcellulose was administered in a similar manner, which was not added with a test compound. One hour after the administration of the test compound, 0.02 ml of a suspension of zymosan suspended in physiological saline (Otsuka Pharmaceutical) at 1 mg/ml was subcutaneously administered to right hind leg footpad of each mouse. One and two hours after the administration of the zymosan suspension, volume of the right hind leg footpad was measured by using an apparatus for measuring a volume of mouse hind leg footpad edema (Unicom). A difference of the volume of footpad measured above and the footpad volume before the administration of the test compound measured beforehand was regarded as a volume of the edema. For the volume of the edema at 1 hour or 2 hours after the zymosan administration, a graph was prepared by indicating time in abscissa and the edema volume in ordinate, and an edema volume AUC (area under the curve) was obtained up to 2 hours by calculation using the following equation. Edema volume AUC (1·hour)=1/2×1×A+1×(A+B)/2 • A: Edema volume 1 hour after zymosan administration • B: Edema volume 2 hour after zymosan administration A suppression ratio on edema of test compound was obtained by calculation using the following equation. Edema suppression ratio (%)=[1−B/A]×100 • A: Edema volume AUC of positive control • B: Edema volume AUC of test compound administered group (2) Measurement Results

Assay [2] concerns PGE2 production from IL-1β-stimulated MG-63 cells. Kind of assay: Suppressing action on PGE2 production from IL-1β-stimulated MG-63 cells. In kind it is cell-based. To be noted: Homo sapiens, IL-1β 1 ng/ml, 18 hours, read-out: PGE2 production suppression ratio. From the text:
1. Suppressing Action on PGE2 Production from IL-1β-Stimulated MG-63 Cells (1) Method for Measurement
An action of suppressing PGE2 production caused by interleukin (IL) 1β as an inflammatory stimulant was studied by the following method. Cells of MG-63, which is a human osteosarcoma cell line (purchased from Dainippon Pharmaceutical), were suspended in EMEM medium (GIBCO) containing 10% fetal bovine serum (BioFluid), and then inoculated to each well of 96-well culture plate at a density of 2×10^4 cells/well and cultured overnight. The medium was changed to EMEM medium containing 0.5% fetal bovine serum, and then a test compound was added with each well. Human interleukin-1β (ENDOGEN) was further added as an inflammatory stimulant at a final concentration of 1 ng/ml. The cells were further cultured for 18 hours. The culture supernatant was collected, and the PGE2 concentration in the culture supernatant was measured by using EIA kit (CAYMAN). By using a well which was not added with the stimulant as a negative control and a well which was added only with the stimulant as a positive control, suppression ratios on PGE2 production were calculated from produced amounts of PGE2 in the well added with the test compound using the following equation. PGE2 production suppression ratio=[1−(C−B)/(A−B)]×100 • A: PGE2 production amount of positive control • B: PGE2 production amount of negative control • C: PGE2 production amount in well added with test compound

In the case of “3-(3-{6-[(2-aminoacetyl)amino]Naphthalen-2-yl}-4-cyclopentyl-methyloxyphenyl)propionic acid [Compound 078]”, the “suppression of footpad edema caused by zymosan” value (from here on “suppression”) in assay [1] was “suppressed footpad edema”.
The same measure, in the same setting: the entry for “3-[4-isopropyloxy-3-(1H-indol-5-yl)phenyl]propionate [Compound 173]” is “suppressed footpad edema”.
In the case of `O=C(O)CCc1ccc(OCCc2ccccc2F)c(-c2ccc3cc(O)ccc3c2)c1` [Compound 006, 3-{4-[2-(2-fluorophenyl)ethyloxy]-3-(6-hydroxynaphthalen-2-yl)phenyl}propionic acid], in assay [2], the inhibition at 0.4 µM was at least 50%. The “suppression” value in assay [1] was “suppressed footpad edema”.
The corresponding values for `O=C(O)CCc1ccc(OCc2ccccc2F)c(-c2ccc3ccccc3c2)c1` [Compound 031, 3-[4-(2-fluorophenylmethyloxy)-3-(naphthalen-2-yl)phenyl]propionic acid] are at least 50% and “suppressed footpad edema”.
Consider `O=C(O)CCc1ccc(OCC2CCCC2)c(-c2ccc3cc(NC(=O)CO)ccc3c2)c1` [Compound 079, 3-(4-cyclopentylmethyloxy-3-{6-[2-(hydroxyacetyl)amino]naphthalen-2-yl}phenyl)propionic acid], for which, in assay [1], the “suppression” value was “suppressed footpad edema”.
For the molecule `O=C(O)CCc1ccc(OCCc2ccccc2F)c(-c2ccc3[nH]ccc3c2)c1` [Compound 106, 3-{4-[2-(2-fluorophenyl)ethyloxy]-3-(1H-indol-5-yl)phenyl}propionic acid], the inhibition at 0.4 µM in assay [2] was at least 50%. For the same molecule, the “suppression” value in assay [1] was “suppressed footpad edema”.
The corresponding values for `O=C(O)CCc1ccc(OCC2CCCC2)c(-c2cccc3[nH]ccc23)c1` [Compound 114, 3-[4-cyclopentylmethyloxy-3-(1H-indol-4-yl)phenyl]propionic acid] are at least 50% and “suppressed footpad edema”.
The corresponding values for `O=C(O)CCc1ccc(OCc2c(Cl)cccc2Cl)c(-c2ccc3[nH]ccc3c2)c1` [Compound 164, 3-[4-(2,6-dichlorophenylmethyloxy)-3-(1H-indol-5-yl)phenyl]propionic acid] are at least 50% and “suppressed footpad edema”.
The corresponding values for `COc1ccc(CCOc2ccc(CCC(=O)O)cc2-c2ccc3[nH]ccc3c2)cc1` [Compound 207, 3-{3-(1H-indol-5-yl)-4-[2-(4-methoxyphenyl)ethyloxy]phenyl}propionic acid] are at least 50% and “suppressed footpad edema”.
Take `CN(C)c1ccc(CCOc2ccc(CCC(=O)O)cc2-c2ccc3[nH]ccc3c2)cc1` [Compound 215, 3-(4-{2-[4-(N,N-dimethylamino)phenyl]Ethyloxy}-3-[1H-indol-5-yl]phenyl)propionic acid]: the inhibition at 0.4 µM in assay [2] was at least 50%. Moreover, the “suppression” value in assay [1] is recorded as “suppressed footpad edema”.
The corresponding values for `O=C(O)CCc1ccc(OCCOc2ccccc2)c(-c2ccc3[nH]ccc3c2)c1` [Compound 222, 3-{3-(1H-indol-5-yl)-4-[2-(phenyloxy)ethyloxy]phenyl}propionic acid] are at least 50% and “suppressed footpad edema”.
The corresponding values for `O=C(O)CCc1ccc(OCCOc2ccccc2Cl)c(-c2ccc3[nH]ccc3c2)c1` [Compound 224, 3-{4-[2-(2-chlorophenyloxy)ethyloxy]-3-(1H-indol-5-yl)phenyl}propionic acid] are at least 50% and “suppressed footpad edema”.
Take `CCCCOc1ccc(CCC(=O)O)cc1-c1ccc2nc(N)sc2c1` [Compound 291, 3-[3-(2-aminobenzothiazol-6-yl)-4-butyloxyphenyl]propionic acid]: the inhibition at 0.4 µM in assay [2] is at least 50%. Also, the “suppression” value in assay [1] is on record as “suppressed footpad edema”.
Regarding `CC(C)(C)c1ccc(COc2ccc(CCC(=O)O)cc2-c2ccc3[nH]ccc3c2)cc1` [Compound 329], the “suppression” value in assay [1] is “suppressed footpad edema”.
In the case of `O=C(O)CCc1ccc(OC2CCCCC2)c(-c2ccc3ncsc3c2)c1` [Compound 330, 3-[3-(benzothiazol-6-yl)-4-cyclohexyloxyphenyl]propionic acid], the inhibition at 0.4 µM in assay [2] is at least 50%.
The same measure, in the same setting: under `COC(=O)CCc1cc(-c2ccc3ccccc3c2)c(OC2CCCC2)c([N+](=O)[O-])c1` [Compound 331, methyl 3-[4-cyclopentyloxy-3-(naphthalen-2-yl)-5-nitrophenyl]propionate] stands at least 50%.
The same measure, in the same setting: the figure for `Nc1cc(CCC(=O)O)cc(-c2ccc3ccccc3c2)c1OC1CCCC1` [Compound 333, 3-[3-amino-4-cyclopentyloxy-5-(naphthalen-2-yl)phenyl]propionic acid] is at least 50%; for `O=C(O)CCc1cc(O)c(OCC2CCCC2)c(-c2ccc3ccccc3c2)c1` [Compound 568, 3-[4-cyclopentylmethyloxy-3-hydroxy-5-(naphthalen-2-yl)phenyl]propionic acid] it is at least 50%; for `Cc1cc(CCC(=O)O)cc(-c2ccc3ccccc3c2)c1OC1CCCC1` [Compound 570, 3-[4-cyclopentyloxy-3-methyl-5-(naphthalen-2-yl)phenyl]propionic acid] it is at least 50%.
Still for that read-out and setting: the figure for `Cc1cc(CCC(=O)O)cc(-c2ccc3[nH]ccc3c2)c1OC1CCCC1` [Compound 571, 3-[4-cyclopentyloxy-3-(1H-indol-5-yl)-5-methylphenyl]propionic acid] is at least 50%; for `Cc1n[nH]c2ccc(-c3cc(CCC(=O)O)ccc3OC3CCCC3)cc12` [Compound 574, 3-[4-cyclopentyloxy-3-(3-methyl-1H-indazol-5-yl)phenyl]propionic acid] it is at least 50%.
For `Cc1nn(C)c2ccc(-c3cc(CCC(=O)O)ccc3OC3CCCC3)cc12` [Compound 576, 3-[4-cyclopentyloxy-3-(1,3-dimethyl-1H-indazol-5-yl)phenyl]propionic acid], the inhibition at 0.4 µM in assay [2] is at least 50%.
Still for that read-out and setting: under `COc1cc(CCC(=O)O)cc(-c2ccc3[nH]ccc3c2)c1OC1CCCC1` [Compound 578, 3-[4-cyclopentyloxy-3-(1H-indol-5-yl)-5-methoxyphenyl]propionic acid] stands at least 50%; under `COc1cc(CCC(=O)O)cc(-c2ccc3c(ccn3C)c2)c1OC1CCCC1` [Compound 580, 3-[4-cyclopentyloxy-3-methoxy-5-(1-methyl-1H-indol-5-yl)phenyl]propionic acid], at least 50%.
Take `CCn1ccc2cc(-c3cc(CCC(=O)O)cc(OC)c3OC3CCCC3)ccc21` [Compound 582, 3-[4-cyclopentyloxy-3-(1-ethyl-1H-indol-5-yl)-5-methoxyphenyl]propionic acid]: in assay [2], the inhibition at 0.4 µM was at least 50%.
Same read-out and setting: under `Cc1cc2cc(-c3cc(CCC(=O)O)ccc3OCC3CCCC3)ccc2[nH]1` [Compound 584, 3-[4-cyclopentylmethyloxy-3-(2-methyl-1H-indol-5-yl)phenyl]propionic acid] stands at least 50%.
For `CNc1cc(CCC(=O)O)cc(-c2ccc3c(cnn3C)c2)c1OC1Cc2ccccc2C1` [Compound 587, 3-[4-(indan-2-yloxy)-3-(N-methylamino)-5-(1-methyl-1H-indazol-5-yl)phenyl]propionic acid], the inhibition at 0.4 µM in assay [2] was at least 50%.
On the same count and under the same terms, the figure for `CCCOc1ccc(CCC(=O)O)cc1-c1ccc2[nH]ccc2c1` [Compound 588, 3-[4-n-propyloxy-3-(1H-indol-5-yl)phenyl]propionic acid] is at least 50%.
